Reference: patent US8021851B2, “Thr51 phosphorylated HP 1β protein for the assessment of DNA damage” (Cambridge Enterprise Limited, priority 2009, dated 2011)

Assays:
[1] = tested on: HP1βT51P levels; experiment: anti-HP1βT51P detection in cell extracts; type: cell-based
[2] = tested on: EGFP-HP1β; experiment: FRAP dynamics of EGFP-HP1β in living cells; type: cell-based, mouse; conditions: preexposure to 75 μM TBB (FIG. 20)
Protocol: MEFs were seeded in 2-well Lab-Tek chambers (Nunc) after transfection with the EGFP-HP1β construct. Before imaging, growth medium was replaced with phenol-red free L15 imaging medium. Live cell imaging and photobleaching experiments were performed using a 40× 1.2 NA water immersion lens on a Zeiss LSM 510 Meta confocal microscope (using a heating chamber to maintain the cells at […]) with the 488 nm line of an Argon laser operating at 6.1 A.
FRAP analysis was performed by a method previously established in our lab 27. For low-bleach FRAP (see FIG. S1), selected regions of HC and EC were simultaneously bleached in a diffraction-limited spot with a pulse of 2 iterations at 100% of the […] Ar laser. Post-bleach images were acquired at a lower frequency of an image every 400 msec. Image bleach was corrected separately for EC and HC regions using a nearby unbleached cell. For high-bleach FRAP experiments, photobleaching was with 35 iterations at the same laser output, and images were collected every 290 msec. The normalized curves were plotted in GraphPad Prism, and recovery curves were fitted to a single order exponential equation Y=Ymax*(1−exp(−K*X)) to yield a recovery constant K; shown to be different among groups by the sum of squares f-test at p<0.05.

[3] = tested on: γH2AX; experiment: γH2AX foci formation / staining in MEFs after IR; type: cell-based, mouse
Protocol: Cell staining and immunofluorescence analyses were carried out as described previously^2. Briefly, transfected and untransfected cells were grown on coverslips and subjected to different treatments as indicated in the text prior to fixation. Cells were fixed using 4% formaldehyde for 10-15 min, followed by solubilisation and blocking with 3% BSA in 1×PBS, 0.05% Tween-20, 0.05% Triton. Imaging was performed on a Zeiss LSM510 Meta confocal microscope, using a 40× objective with fixed optical slice, laser power and detector/amplifier settings for all samples across each individual experiment to allow comparison. Quantitative analysis for HP1βT51P and γH2AX staining was performed using mean per-nucleus intensity to avoid any discrepancy in the definition or counting of foci. This was performed on identically stained and imaged samples by estimation of raw pixel intensity values for a defined number of cells, specified for each experiment, through the Zeiss LSM software, and comparison of the different groups by one-way ANOVA and Dunnet's post test. […] The plates were imaged and analyzed using a Cellomics high content screening microscope, using a 40× non-immersion objective. […] 500 cells were analysed per well, and standard errors calculated from an average of the means of 8 wells.

Structure (SMILES): COc1cc([C@@H]2c3cc4c(cc3[C@@H](O[C@@H]3O[C@@H]5CO[C@@H](C)O[C@H]5[C@H](O)[C@H]3O)[C@H]3COC(=O)[C@H]23)OCO4)cc(OC)c1O [etoposide]
- HP1βT51P species detected by anti-HP1βT51P in cell extracts ([1]; etoposide treatment): enhanced in a dose-dependent manner

Structure (SMILES): Brc1c(Br)c(Br)c2[nH]cnc2c1Br [TBB, 4,5,6,7-tetrabromo-benzimidazole]
- HP1βT51P levels detected by anti-HP1βT51P in cell extracts ([1]; TBB at 75 μM for 6 hrs, with and without etoposide): diminishes both the background detection and etoposide-induced enhancement of HP1βT51P levels
- changes in FRAP dynamics of EGFP-HP1β triggered by DNA damage [2]: suppresses in living cells the changes in FRAP dynamics
- γH2AX foci formation ([3]; MEFs pre-exposed to 75 μM TBB, 5 min after 3 Gy IR): suppresses γH2AX foci formation
- pixel intensity of γH2AX staining after damage ([3]; TBB preexposure, n=20 per sample, p<0.01): reduced in a dose-dependent manner
